The values below come from patent US20240279278A1, “NMU RECEPTOR 2 AGONISTS” (Boehringer Ingelheim International GmbH, priority 2023, published 2024).

What all share (type): cell-based
One assay has as its target T1, human NMUR1 receptor (Homo sapiens, UniProt Q9HB89).
T1 construct: expressed in transfected cells; host or cells: CHO-K1
T1 sequence (Q9HB89 1-426): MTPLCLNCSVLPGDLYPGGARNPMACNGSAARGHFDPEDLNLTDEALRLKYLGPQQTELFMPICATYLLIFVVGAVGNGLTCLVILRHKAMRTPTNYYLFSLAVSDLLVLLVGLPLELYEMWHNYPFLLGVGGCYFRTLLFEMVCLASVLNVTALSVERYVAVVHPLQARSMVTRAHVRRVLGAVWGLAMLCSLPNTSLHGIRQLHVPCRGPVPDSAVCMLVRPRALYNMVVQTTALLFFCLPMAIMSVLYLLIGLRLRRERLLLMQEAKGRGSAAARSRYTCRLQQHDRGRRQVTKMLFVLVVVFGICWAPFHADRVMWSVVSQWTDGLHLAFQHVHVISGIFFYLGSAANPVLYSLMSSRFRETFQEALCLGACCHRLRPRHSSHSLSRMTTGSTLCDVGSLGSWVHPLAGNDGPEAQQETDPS
Kind of assay: IP1 Gq HTRF assay, activation of human NMUR1 in buffer. The note with it: CHO-K1 cells expressing human NMUR1, stimulation buffer with 0.1% BSA; read-out: EC50 (hNMUR1) buffer. In short, it runs like this: (§1)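 CHO-K1 cells stably expressing human NMUR1 or NMUR2, seeded 24 h before assay, stimulated with peptide agonists (8-point dose-response, 1% DMSO final) in HEPES/HBSS buffer with 50 mM LiCl and 0.1% BSA, pH 7.4, 1 h at 37 °C. IP1 accumulation read by HTRF competition (665/620 nm); EC50 from 4-parameter sigmoidal fit.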

The target of assay [1] is T2, human NMUR2 receptor (Homo sapiens, UniProt Q9GZQ4). Kind of assay: IP1 Gq HTRF assay, activation of human NMUR2 in human plasma. Also noted: expressed in transfected cells; host or cells: CHO-K1. The note with it: CHO-K1 cells expressing human NMUR2, 100% human plasma; read-out: EC50 (hNMUR2) human plasma. In short, it runs like this: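 CHO-K1 cells stably expressing human NMUR2 exposed to peptide agonists (8-point dose-response) in 100% human plasma with 50 mM LiCl, 1% DMSO, for 1 h at 37° C. IP1 accumulation read by HTRF competition (665/620 nm ratio). EC50 from 4-parameter sigmoidal fit.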
T2 sequence (Q9GZQ4 whole entry): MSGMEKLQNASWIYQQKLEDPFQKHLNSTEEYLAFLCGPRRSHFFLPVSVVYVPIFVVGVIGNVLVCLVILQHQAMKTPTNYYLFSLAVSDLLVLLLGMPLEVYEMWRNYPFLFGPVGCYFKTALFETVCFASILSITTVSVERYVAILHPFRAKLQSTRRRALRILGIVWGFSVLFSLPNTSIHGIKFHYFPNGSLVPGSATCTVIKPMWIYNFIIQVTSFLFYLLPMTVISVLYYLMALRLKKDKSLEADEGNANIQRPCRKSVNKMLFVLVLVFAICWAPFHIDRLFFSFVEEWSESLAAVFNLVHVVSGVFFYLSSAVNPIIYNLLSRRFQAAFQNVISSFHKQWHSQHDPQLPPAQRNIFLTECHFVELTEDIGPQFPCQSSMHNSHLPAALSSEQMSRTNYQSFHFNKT
Background: Time-resolved FRET reads energy transfer from a long-lived donor to a nearby acceptor.

Assay [2] deals with T2, human NMUR2 receptor. Kind of assay: IP1 Gq HTRF assay, activation of human NMUR2 in buffer. More on the design: expressed in transfected cells; host or cells: CHO-K1. The note with it: CHO-K1 cells expressing human NMUR2, stimulation buffer with 0.1% BSA; read-out: EC50 (hNMUR2) buffer. In short, it runs like this: as §1

Starred links: 1 amine or outer side, 2 acyl side, 3 side chain; linkers in the order of their positions; H or OH if unused. Non-standard residues stand in square brackets, D forms with d. Residues, ends and D or L forms follow the SMILES beside them. *: point of attachment. Pipz(1-CH2CO,4-CH2CH2NH) = O=C(CN1CCN(CCN[*:1])CC1)[*:2]; C18 diacid = O=C(O)CCCCCCCCCCCCCCCCC(=O)*; γGlu = O=C(O)[C@H](CCC(=O)[*:2])N[*:1]; 2Pal = N[C@@H](Cc1ccccn1)C(=O)O; 3Pal = N[C@@H](Cc1cccnc1)C(=O)O; NMeL = CN[C@@H](CC(C)C)C(=O)O; NMeA = CN[C@@H](C)C(=O)O; Nle = CCCC[C@H](N)C(=O)O; Sar = CNCC(=O)O A value given as a limit tells only on which side of the number the result lay.

Regarding `CCCC[C@H](NC(=O)[C@H](CC(C)C)N(C)C(=O)[C@H](Cc1ccccc1)NC(=O)[C@H](Cc1ccc(O)cc1)NC(=O)CN1CCN(CCNC(=O)CN(C)C(=O)CN(C)C(=O)CN(C)C(=O)CN(C)C(=O)CN(C)C(=O)CN(C)C(=O)CN(C)C(=O)CN(C)C(=O)CN(C)C(=O)CN(C)C(=O)CN(C)C(=O)CN(C)C(=O)CC[C@H](NC(=O)CC[C@H](NC(=O)CC[C@H](NC(=O)CCCCCCCCCCCCCCCCC(=O)O)C(=O)O)C(=O)O)C(=O)O)CC1)C(=O)N(C)[C@@H](CCCNC(=N)N)C(=O)N1CCC[C@H]1C(=O)N[C@@H](CCCNC(=N)N)C(=O)NCC(N)=O` [Compound 35, C18DA-gGlu3-Sar12-AEPipAc-Tyr-Phe-NMeLeu-Nle-NMeArg-Pro-Arg-Gly-NH2], the EC50 on human NMUR1 receptor turned out to be 190 nM; on human NMUR2 receptor [1], 9.4 nM; at human NMUR2 receptor [2], 1.5 nM.

Turning to `CCCC[C@H](NC(=O)[C@H](CC(C)C)N(C)C(=O)[C@H](Cc1ccccc1)NC(=O)[C@H](Cc1ccc(O)cc1)NC(=O)CN1CCN(CCNC(=O)CN(C)C(=O)CN(C)C(=O)CN(C)C(=O)CN(C)C(=O)CN(C)C(=O)CN(C)C(=O)CN(C)C(=O)CN(C)C(=O)CN(C)C(=O)CC[C@H](NC(=O)CC[C@H](NC(=O)CC[C@H](NC(=O)CCCCCCCCCCCCCCCCCCC(=O)O)C(=O)O)C(=O)O)C(=O)O)CC1)C(=O)N[C@@H](CCN)C(=O)N1CCC[C@H]1C(=O)N[C@@H](CCCNC(=N)N)C(=O)NCC(N)=O` [Compound 60, C20DA-gGlu3-Sar9-AEPipAc-Tyr-Phe-NMeLeu-Nle-Dbu-Pro-Arg-Gly-NH2] (HELM PEPTIDE1{[O=C(O)CCCCCCCCCCCCCCCCCCC(=O)[*:2]].[gGlu].[gGlu].[gGlu].[Sar].[Sar].[Sar].[Sar].[Sar].[Sar].[Sar].[Sar].[Sar].[O=C(CN1CCN(CCN[*:1])CC1)[*:2]].Y.F.[meL].[Nle].[Dab].P.R.G.[am]}$$$$V2.0), the EC50 is 540 nM at human NMUR1 receptor, 13.9 nM at human NMUR2 receptor [1] and 4 nM on human NMUR2 receptor [2].

Consider `CCCC[C@H](NC(=O)[C@H](CC(C)C)N(C)C(=O)[C@H](Cc1ccccc1)NC(=O)[C@H](Cc1ccc(O)cc1)NC(=O)CN1CCN(CCNC(=O)CN(C)C(=O)CN(C)C(=O)CN(C)C(=O)CN(C)C(=O)CN(C)C(=O)CN(C)C(=O)CN(C)C(=O)CN(C)C(=O)CN(C)C(=O)CN(C)C(=O)CN(C)C(=O)CN(C)C(=O)CN(C)C(=O)CN(C)C(=O)CN(C)C(=O)CC[C@H](NC(=O)CC[C@H](NC(=O)CC[C@H](NC(=O)CCCCCCCCCCCCCCCCC(=O)O)C(=O)O)C(=O)O)C(=O)O)CC1)C(=O)N[C@@H](Cc1ccccn1)C(=O)N(C)[C@@H](C)C(=O)N[C@@H](CCCNC(=N)N)C(=O)NCC(N)=O` [Compound 48, C18DA-gGlu3-Sar15-AEPipAc-Tyr-Phe-NMeLeu-Nle-2Pal-NMeAla-Arg-Gly-NH2] ({C18 diacid-γGlu-γGlu-γGlu}-[Sar][Sar][Sar][Sar][Sar][Sar][Sar][Sar][Sar][Sar][Sar][Sar][Sar][Sar][Sar][Pipz(1-CH2CO,4-CH2CH2NH)]YF[NMeL][Nle][2Pal][NMeA]RG-NH2), for which the concentration giving a half-maximal response (EC50) at human NMUR1 receptor, at human NMUR2 receptor [1] and on human NMUR2 receptor [2] was over 1000 nM in each case.

For `CCCC[C@H](NC(=O)[C@H](CC(C)C)N(C)C(=O)[C@H](Cc1ccccc1)NC(=O)[C@H](Cc1ccc(O)cc1)NC(=O)CN1CCN(CCNC(=O)CN(C)C(=O)CN(C)C(=O)CN(C)C(=O)CN(C)C(=O)CN(C)C(=O)CN(C)C(=O)CN(C)C(=O)CN(C)C(=O)CN(C)C(=O)CN(C)C(=O)CN(C)C(=O)CN(C)C(=O)CC[C@H](NC(=O)CC[C@H](NC(=O)CC[C@H](NC(=O)CC[C@H](NC(=O)CCCCCCCCCCCCCCCCCCC(=O)O)C(=O)O)C(=O)O)C(=O)O)C(=O)O)CC1)C(=O)N[C@@H](CCCNC(=N)N)C(=O)N1CCC[C@H]1C(=O)N[C@@H](CCCNC(=N)N)C(=O)NCC(N)=O` [Compound 39, C20DA-gGlu4-Sar12-AEPipAc-Tyr-Phe-NMeLeu-Nle-Arg-Pro-Arg-Gly-NH2], the half-maximal effective concentration (EC50) was determined as 190 nM on human NMUR1 receptor, 10.4 nM on human NMUR2 receptor [1] and 2.5 nM at human NMUR2 receptor [2].

As to `CCCC[C@H](NC(=O)[C@H](CC(C)C)N(C)C(=O)[C@H](Cc1ccccc1)NC(=O)[C@H](Cc1ccc(O)cc1)NC(=O)CN1CCN(CCNC(=O)CN(C)C(=O)CN(C)C(=O)CN(C)C(=O)CN(C)C(=O)CN(C)C(=O)CN(C)C(=O)CN(C)C(=O)CN(C)C(=O)CN(C)C(=O)CN(C)C(=O)CN(C)C(=O)CN(C)C(=O)CN(C)C(=O)CN(C)C(=O)CN(C)C(=O)CC[C@H](NC(=O)CC[C@H](NC(=O)CC[C@H](NC(=O)CCCCCCCCCCCCCCCCC(=O)O)C(=O)O)C(=O)O)C(=O)O)CC1)C(=O)N[C@@H](Cc1cccnc1)C(=O)N1CCC[C@H]1C(=O)N[C@@H](CCCNC(=N)N)C(=O)NCC(N)=O` [Compound 54, C18DA-gGlu3-Sar15-AEPipAc-Tyr-Phe-NMeLeu-Nle-3Pal-Pro-Arg-Gly-NH2] ({C18 diacid-γGlu-γGlu-γGlu}-[Sar][Sar][Sar][Sar][Sar][Sar][Sar][Sar][Sar][Sar][Sar][Sar][Sar][Sar][Sar][Pipz(1-CH2CO,4-CH2CH2NH)]YF[NMeL][Nle][3Pal]PRG-NH2), the concentration for a half-maximal effect (EC50) at human NMUR1 receptor is over 1000 nM; on human NMUR2 receptor [1] it was 122 nM; on human NMUR2 receptor [2] it was 28 nM.

Regarding `CCCC[C@H](NC(=O)[C@H](CC(C)C)N(C)C(=O)[C@H](Cc1ccccc1)NC(=O)[C@H](Cc1ccc(O)cc1)NC(=O)CN1CCN(CCNC(=O)CN(C)C(=O)CN(C)C(=O)CN(C)C(=O)CN(C)C(=O)CN(C)C(=O)CN(C)C(=O)CN(C)C(=O)CN(C)C(=O)CN(C)C(=O)CN(C)C(=O)CN(C)C(=O)CN(C)C(=O)CN(C)C(=O)CN(C)C(=O)CN(C)C(=O)CC[C@H](NC(=O)CC[C@H](NC(=O)CC[C@H](NC(=O)CC[C@H](NC(=O)CCCCCCCCCCCCCCCCCCC(=O)O)C(=O)O)C(=O)O)C(=O)O)C(=O)O)CC1)C(=O)N[C@@H](CCCCN)C(=O)N(C)[C@@H](C)C(=O)N[C@@H](CCCNC(=N)N)C(=O)NCC(N)=O` [Compound 18, C20DA-gGlu4-Sar15-AEPipAc-Tyr-Phe-NMeLeu-Nle-Lys-NMeAla-Arg-Gly-NH2] (HELM PEPTIDE1{[O=C(O)CCCCCCCCCCCCCCCCCCC(=O)[*:2]].[gGlu].[gGlu].[gGlu].[gGlu].[Sar].[Sar].[Sar].[Sar].[Sar].[Sar].[Sar].[Sar].[Sar].[Sar].[Sar].[Sar].[Sar].[Sar].[Sar].[O=C(CN1CCN(CCN[*:1])CC1)[*:2]].Y.F.[meL].[Nle].K.[meA].R.G.[am]}$$$$V2.0), the concentration giving a half-maximal response (EC50) is over 1000 nM at human NMUR1 receptor, 34.7 nM on human NMUR2 receptor [1] and 7 nM on human NMUR2 receptor [2].

As for `CCCC[C@H](NC(=O)[C@H](CC(C)C)N(C)C(=O)[C@H](Cc1ccccc1)NC(=O)[C@H](Cc1ccc(O)cc1)NC(=O)CN1CCN(CCNC(=O)CN(C)C(=O)CN(C)C(=O)CN(C)C(=O)CN(C)C(=O)CN(C)C(=O)CN(C)C(=O)CN(C)C(=O)CN(C)C(=O)CN(C)C(=O)CN(C)C(=O)CN(C)C(=O)CN(C)C(=O)CN(C)C(=O)CN(C)C(=O)CN(C)C(=O)CC[C@H](NC(=O)CC[C@H](NC(=O)CC[C@H](NC(=O)CCCCCCCCCCCCCCCCC(=O)O)C(=O)O)C(=O)O)C(=O)O)CC1)C(=O)N[C@@H](Cc1ccccn1)C(=O)N1CCC[C@H]1C(=O)N[C@@H](CCCNC(=N)N)C(=O)NCC(N)=O` [Compound 56, C18DA-gGlu3-Sar15-AEPipAc-Tyr-Phe-NMeLeu-Nle-2Pal-Pro-Arg-Gly-NH2] ({C18 diacid-γGlu-γGlu-γGlu}-[Sar][Sar][Sar][Sar][Sar][Sar][Sar][Sar][Sar][Sar][Sar][Sar][Sar][Sar][Sar][Pipz(1-CH2CO,4-CH2CH2NH)]YF[NMeL][Nle][2Pal]PRG-NH2), the EC50 at human NMUR1 receptor is over 1000 nM; on human NMUR2 receptor [1], 432 nM; on human NMUR2 receptor [2], 72 nM.

As for `CCCC[C@H](NC(=O)[C@H](CC(C)C)N(C)C(=O)[C@H](Cc1ccccc1)NC(=O)[C@H](Cc1ccc(O)cc1)NC(=O)CN1CCN(CCNC(=O)CN(C)C(=O)CN(C)C(=O)CN(C)C(=O)CN(C)C(=O)CN(C)C(=O)CN(C)C(=O)CC[C@H](NC(=O)CC[C@H](NC(=O)CCCCCCCCCCCCCCCCC(=O)O)C(=O)O)C(=O)O)CC1)C(=O)N[C@@H](CCCNC(=N)N)C(=O)N1CCC[C@H]1C(=O)N[C@@H](CCCNC(=N)N)C(=O)NCC(N)=O` [Compound 71, C18DA-gGlu2-Sar6-AEPipAc-Tyr-Phe-NMeLeu-Nle-Arg-Pro-Arg-Gly-NH2] (HELM PEPTIDE1{[O=C(O)CCCCCCCCCCCCCCCCC(=O)[*:2]].[gGlu].[gGlu].[Sar].[Sar].[Sar].[Sar].[Sar].[Sar].[O=C(CN1CCN(CCN[*:1])CC1)[*:2]].Y.F.[meL].[Nle].R.P.R.G.[am]}$$$$V2.0), the EC50 on human NMUR1 receptor came to 130 nM; at human NMUR2 receptor [1], 14.5 nM; on human NMUR2 receptor [2], 1.5 nM.

For orientation: EC50 means the concentration at which the effect is half-maximal.
